# Results as given in PubChem BioAssay (NCI).
#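 Where inhibition never reached the appropriate level, the endpoint shown equals the highest concentration tested. Otherwise, values were interpolated linearly from a five-concentration, 48-hour dose response in 96-well plates. Abbreviation: GI50, concentration required for 50% inhibition of growth. TGI is the concentration that stops growth completely.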
# Assays:
# Experiment in all cases: inhibition of tumour cell growth, NCI panel, 48 h
# A549 NSCLC = system: A549 NSCLC
# COLO 205 colon = system: COLO 205 colon
# RPMI-8226 leukemia = system: RPMI-8226 leukemia
# LOX IMVI melanoma = system: LOX IMVI melanoma
# SK-OV-3 ovarian = system: SK-OV-3 ovarian
# NCI-H226 lung = system: NCI-H226 lung
# ACHN renal = system: ACHN renal
# MALME-3M melanoma = system: MALME-3M melanoma
# MDA-MB-435 = system: MDA-MB-435
# PC-3 prostate = system: PC-3 prostate
Compound,GI50 (A549 NSCLC) [µM],TGI (A549 NSCLC) [µM],GI50 (COLO 205 colon) [µM],TGI (COLO 205 colon) [µM],GI50 (RPMI-8226 leukemia) [µM],TGI (RPMI-8226 leukemia) [µM],GI50 (LOX IMVI melanoma) [µM],TGI (LOX IMVI melanoma) [µM],GI50 (SK-OV-3 ovarian) [µM],TGI (SK-OV-3 ovarian) [µM],GI50 (NCI-H226 lung) [µM],TGI (NCI-H226 lung) [µM],GI50 (ACHN renal) [µM],TGI (ACHN renal) [µM],GI50 (MALME-3M melanoma) [µM],TGI (MALME-3M melanoma) [µM],GI50 (MDA-MB-435) [nM],TGI (MDA-MB-435) [µM],GI50 (PC-3 prostate) [µM],TGI (PC-3 prostate) [µM]
CC(=O)[CH-]C(=O)c1ccccc1.CC(=O)[CH-]C(=O)c1ccccc1.COc1cccc([O-])c1[O-].[Ti+4],> 100,> 100,37.9,> 100,57.1,> 100,25,> 100,53.9,> 100,15.9,73,94.9,> 100,33.4,> 100,–,–,–,–
N#CCCN(CCC#N)C(=O)c1cccc(C(=O)N(CCC#N)CCC#N)c1,–,> 100,–,> 100,–,> 85.1,–,30.3,–,> 100,–,–,–,> 100,–,> 100,–,–,–,–
CCC1=C(C)/C(=C/c2[nH]c(C(Br)Br)c(CC)c2C)N=C1C(Br)Br,–,> 100,–,21,–,39.9,–,> 100,–,> 100,–,90.1,–,> 100,–,76.4,–,–,–,–
CNC(=S)N/N=C1\CC(c2ccccc2)Oc2ccccc21 (centres undefined),–,> 100,–,> 100,–,–,–,> 100,–,> 100,–,> 100,–,> 100,–,> 100,–,–,–,–
[N-]=[N+]=Nc1ccc(CCN2CCN(c3cccc(C(F)(F)F)c3)CC2)cc1I,–,> 100,–,> 100,–,69.4,–,> 100,–,> 100,–,> 100,–,> 100,–,> 100,–,–,–,–
O=[N+]([O-])c1cc([N+](=O)[O-])c(Cl)c(Cl)c1Cl,3.16,13.9,0.616,2.03,1.54,5.01,0.516,1.86,5.84,18.4,–,–,1.04,2.3,1.7,3.77,1720,3.33,–,–
N#CNC(N)=NCCO,–,> 100,–,> 100,–,> 100,–,–,–,> 100,–,> 100,–,> 100,–,> 100,–,–,–,–
COc1cc(=O)oc(/C=C/C=O)c1C,–,> 100,–,31.6,–,–,–,16.6,–,75.9,–,90.9,–,39.6,–,39.4,–,–,–,–
COc1ccc(-c2nn(-c3ccc(NC(=O)c4ccc(Cl)c(C(F)(F)F)c4)cc3)cc2-c2ccncc2)cc1Cl,1.81,> 100,1.27,3.48,0.39,> 100,–,–,–,–,4.75,> 100,1.58,> 100,1.11,–,1160,> 100,0.669,> 100
[C-]#[O+].[Cl][Sn]([Cl])[Cl].[Cl][Sn]([Cl])[Cl].[Pt].c1ccc([PH+](c2ccccc2)c2ccccc2)cc1.c1ccc([PH+](c2ccccc2)c2ccccc2)cc1,44.1,> 100,> 100,> 100,27.7,80.3,14.2,41,48.2,> 100,–,–,26.4,> 100,60,> 100,–,–,–,–
COc1ccc(CN2C(=O)C(Cc3cc(OC)c(OC)c(C)c3OC)NC(=O)/C2=C/c2cc(OC)c(OC)c(C)c2OC)cc1 (centres undefined),–,> 100,–,47.4,–,70.2,–,> 100,–,> 100,–,60.2,–,> 100,–,67.8,–,–,–,–
O=C(Cc1nc2ccccc2c(=O)n1-c1c(Cl)cccc1Cl)c1ccncc1,–,46.9,–,33.6,–,–,–,> 10,–,> 100,–,> 10,–,42.4,–,56.2,–,–,–,–
CC1(C)OC(=O)[C@@](C)([C@H](O)c2ccccc2)O1,–,> 100,–,–,–,–,–,–,–,> 100,–,> 100,–,> 100,–,> 100,–,–,–,–
C[C@@H](C1CCC2C3C(=CC(=O)[C@@]21C)[C@H](C)[C@]1(CCC(=O)O1)C1OC31)[C@H]1C[C@]2(C)O[C@@](C)(O1)OC2(C)C (some centres undefined),–,> 100,–,> 100,–,> 100,–,> 100,–,> 100,–,–,–,> 100,–,–,–,–,–,–
CC(C)(C)N/N=C(\Cc1occc(=O)c1O)C(=O)Nc1ccc([N+](=O)[O-])cc1[N+](=O)[O-],–,> 100,–,> 100,–,> 100,–,> 100,–,> 100,–,> 100,–,> 100,–,> 100,–,–,–,–
Cc1onc(-c2c(F)cccc2Cl)c1-c1ncc(-c2ccc(Cl)cc2)o1,4.34,> 100,4.11,> 100,2.77,44.9,–,–,9.33,> 100,5.93,> 100,5.15,> 100,6.43,> 100,5590,> 100,4.21,> 100
CC(C)N(C(=O)C12C3C4C5C3C1(C(=O)N(C(C)C)C(C)C)C5(C#N)C42)C(C)C (centres undefined),–,> 100,–,> 100,–,66.2,–,47.2,–,> 100,–,> 100,–,> 100,–,> 100,–,–,–,–
CCOC(=O)C1=C(C)NC2SC(=O)/C(=C\c3ccccc3Cl)N2C1c1ccccc1 (centres undefined),> 100,> 100,> 100,> 100,79.7,> 100,> 100,> 100,> 100,> 100,> 100,> 100,> 100,> 100,–,–,> 100000,> 100,73.3,> 100
Cc1cc(Cc2cc(C)c(O)c(C)c2)cc(C)c1O,4.32,38.2,32.9,> 100,3.89,30.9,6.64,33.3,6.47,52.4,19.2,77.1,12.1,> 100,9.12,59.2,–,–,14.8,> 100
Cc1c(C(=O)CC(=O)C(=O)Nc2c(C(C)C)cccc2C(C)C)[n+](=O)c2ccccc2n1[O-],–,32.3,–,15.2,–,15.4,–,12.9,–,40.1,–,54.5,–,15.3,–,18.8,–,–,–,–
